Columns and labels:
TLR4.Fc = target: T1, TLR4.Fc (Homo sapiens, UniProt O00206); assay: Sugar competition EIA, TLR4.Fc binding to GLPS-F3; conditions: sugar 1 mg/ml
T1 construct: The extracellular domains of several innate immunity receptors from immune cells were cloned by reverse-transcription polymerase chain reaction (RT-PCR); made in house; host or cells: 293-F (FreeStyle 293) cells
Experimental: (§1) The interaction between GLPS-F3 and receptor.Fc was then tested. Unbiotinylated GLPS-F3 was immobilized at 100 ng/well as described above, and 100 μL receptor.Fc fusion protein (1 μg/ml in 2 mM MgCl2/2 mM CaCl2/1% BSA/TBST) was added into each well and incubated for 1 hour at room temperature. After washing with TBST, wells were incubated with peroxidase-conjugated goat anti-human IgG Ab (1:5000 dilution, Jackson ImmunoResearch Laboratories) in blocking buffer at room temperature for 30 min. Wells were incubated with 100 μL TMB substrate for 15 min after TBST washing and read at 450 nm in a Fusion plate reader (Perkin Elmer). The results were normalized with respect to Fc.Dectin-1 binding (Dectin-1 is a known lectin receptor that binds to β-1,3-glucan which is the backbone found in GLPS-F3). FIG. 6B depicts in graphical form the affinity of each receptor for GLPS-F3 relative to Dectin-1. […] There was also weaker but positive GLPS-F3 binding ability (25-50% binding intensity compared to Fc.dectin-1) found in Fc.NKG2D, Fc.MINCLE, Fc.mKCR, DCAL1.Fc, DEC205.Fc, Endo180.Fc and NKp30(NCR3).Fc.
(§2) To understand the interaction of GLPS-F3 with specific innate immunity receptors, the polysaccharides mannan and β-glucan and the monosaccharides D-mannose (Man), D-glucose (Glc), N-acetyl-glucosamine (GlcNAc), D-galactose (Gal), N-acetyl-galactosamine (GalNAc), L-fucose (Fuc) and sialic acid, were used in a competition assay. […] The assays were carried out as in Example 9, with the addition of 1 mg/ml of each polysaccharide or monosaccharide.

CLEC-6 = target: T2, CLEC-6 (Homo sapiens, UniProt Q8WXI8); assay: Sugar competition EIA, Fc.CLEC-6 binding to GLPS-F3; conditions: sugar 1 mg/ml
T2 construct: The extracellular domains of lectin receptors, TREMs and TLTs were cloned by the reverse-transcriptase polymerase chain reaction (RT-PCR); made in house; host or cells: 293-F (FreeStyle 293) cells
T2 sequence (Q8WXI8 39-215 limits assumed): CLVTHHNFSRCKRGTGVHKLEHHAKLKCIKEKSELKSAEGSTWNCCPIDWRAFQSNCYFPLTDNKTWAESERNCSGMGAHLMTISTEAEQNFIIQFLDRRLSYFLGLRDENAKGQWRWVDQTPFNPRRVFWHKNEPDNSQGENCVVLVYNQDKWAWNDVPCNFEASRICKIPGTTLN
Experimental: as §1, §2

DVLR1/CLEC5A = target: T3, DVLR1/CLEC5A (Homo sapiens, UniProt Q9NY25); assay: Sugar competition, biotinylated DV binding to DVLR1/CLEC5A-transfected 293T cells; format: cell-based; conditions: flow cytometry
T3 construct: expressed in transfected cells; host or cells: 293T cells
T3 sequence (Q9NY25 1-187 isoform Q9NY25-2): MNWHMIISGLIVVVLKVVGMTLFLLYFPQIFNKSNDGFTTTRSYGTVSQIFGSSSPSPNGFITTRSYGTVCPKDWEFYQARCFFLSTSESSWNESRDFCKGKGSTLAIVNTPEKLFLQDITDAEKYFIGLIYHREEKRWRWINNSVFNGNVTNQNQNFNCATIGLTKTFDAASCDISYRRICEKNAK
Experimental: In FIG. 16b, complexes of DV (5×10^6 PFU) with receptor.Fc (5 μg) were immunoprecipitated and detected on westerns with mAb to DV envelope (E) protein. […] FIGS. 16d and 16e show sugar competition assays wherein both DC-SIGN (CLEC4L) and DVLR1/CLEC5A increase DV binding to human 293T cells (FIG. 16d), while addition of sugars inhibits biotinylated DV binding to DC-SIGN- (left panel) or DLVR1/CLEC5A- (right panel) transfected 293T cells in a dose-dependent manner as determined by flow cytometry (FIG. 16e). According to FIG. 16e, MFI represents mean fluorescence intensity. Units (U) for monosaccharide (mannose and fucose) and polysaccharide (mannan) are mM and mg/ml, respectively. […] Data are expressed as the mean±s.d. of three independent experiments. Two-tailed, Student's t-tests were performed.
There are two conserved N-linked glycosylation sites at Asn-67 and Asn-153 of E protein (Pokidysheva, E. et al., Cell 124:485-93 (2006)), and the attached glycans (with terminal fucose and mannose) have been implicated in cellular attachment and viral entry (Modis, Y. et al., J. Virol. 79:1223-1231 (2005)). To investigate the participation of glycans in the association of DVLR1/CLEC5A with DV, virions were incubated with fucose, mannose, or mannan; where the last two sugars are the ligands for DC-SIGN (Mitchell et al., J. Biol. Chem. 276: 28939-28945 ([…])).

KCR.Fc = target: T4, KCR.Fc (Mus musculus, UniProt P70194); assay: Immunosorbent dot binding assay with KCR.Fc; conditions: polysaccharide immobilized on PVDF membrane; receptor.Fc 1 μg/mL
T4 construct: the extracellular domains of DVLR1/CLEC5A (MDL-1), Dectin-1, KCR, and DC-SIGN (as a positive control) were fused to the Fc portion of human IgG1; made in house; host or cells: 293-F (FreeStyle 293) cells
T4 sequence (P70194 70-548 limits assumed): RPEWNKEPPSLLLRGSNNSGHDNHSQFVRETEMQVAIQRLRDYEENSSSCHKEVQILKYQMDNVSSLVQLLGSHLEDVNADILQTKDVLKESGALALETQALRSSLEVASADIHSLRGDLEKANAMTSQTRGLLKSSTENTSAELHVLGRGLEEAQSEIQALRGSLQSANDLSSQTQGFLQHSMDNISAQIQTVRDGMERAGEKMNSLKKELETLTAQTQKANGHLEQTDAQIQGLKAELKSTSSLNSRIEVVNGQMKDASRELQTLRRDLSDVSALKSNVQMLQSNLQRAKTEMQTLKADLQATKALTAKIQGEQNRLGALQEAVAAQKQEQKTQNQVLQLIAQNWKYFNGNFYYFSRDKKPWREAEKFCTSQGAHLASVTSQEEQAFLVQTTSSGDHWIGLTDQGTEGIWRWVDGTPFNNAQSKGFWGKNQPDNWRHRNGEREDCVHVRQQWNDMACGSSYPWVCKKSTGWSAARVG

TLT-2.Fc = target: T5, TLT-2.Fc (Homo sapiens, UniProt Q5T2D2); assay: Immunosorbent dot binding assay with TLT-2.Fc; conditions: polysaccharide immobilized on PVDF membrane; receptor.Fc 1 μg/mL
T5 construct: The extracellular domains of lectin receptors, TREMs and TLTs were cloned by the reverse-transcriptase polymerase chain reaction (RT-PCR); made in house; host or cells: 293-F (FreeStyle 293) cells
T5 sequence (Q5T2D2 19-268 limits assumed): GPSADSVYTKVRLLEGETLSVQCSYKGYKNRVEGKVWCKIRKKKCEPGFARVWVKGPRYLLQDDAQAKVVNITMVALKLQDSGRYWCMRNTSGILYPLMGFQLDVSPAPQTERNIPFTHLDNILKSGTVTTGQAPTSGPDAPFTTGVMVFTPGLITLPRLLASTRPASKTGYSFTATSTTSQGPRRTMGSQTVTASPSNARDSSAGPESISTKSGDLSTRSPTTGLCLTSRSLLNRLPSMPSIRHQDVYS

T1 sequence (O00206 24-631 limits assumed): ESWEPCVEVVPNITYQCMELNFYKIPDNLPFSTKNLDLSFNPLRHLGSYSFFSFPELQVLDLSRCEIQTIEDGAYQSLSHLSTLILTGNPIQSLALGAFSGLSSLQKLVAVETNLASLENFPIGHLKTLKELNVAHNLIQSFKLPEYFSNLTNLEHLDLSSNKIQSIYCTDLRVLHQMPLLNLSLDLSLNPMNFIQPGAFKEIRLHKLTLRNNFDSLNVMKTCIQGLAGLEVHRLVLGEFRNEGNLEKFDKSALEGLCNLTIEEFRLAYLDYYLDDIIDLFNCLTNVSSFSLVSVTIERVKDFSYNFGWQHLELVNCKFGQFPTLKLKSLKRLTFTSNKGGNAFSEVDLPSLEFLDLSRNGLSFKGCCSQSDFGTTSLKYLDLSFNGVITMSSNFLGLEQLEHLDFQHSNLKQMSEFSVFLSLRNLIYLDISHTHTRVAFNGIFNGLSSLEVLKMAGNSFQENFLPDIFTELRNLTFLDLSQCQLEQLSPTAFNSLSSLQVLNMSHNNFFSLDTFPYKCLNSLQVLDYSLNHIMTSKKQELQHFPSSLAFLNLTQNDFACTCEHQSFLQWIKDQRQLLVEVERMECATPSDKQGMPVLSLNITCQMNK

Compound	Percentage of binding of TLR4.Fc to GLPS-F3 relative to binding in absence of sugar competitor (TLR4.Fc) [%]	inhibition of TLR4.Fc and GLPS-F3 interaction (TLR4.Fc) [%]	Percentage of binding of CLEC-6 Fc fusion to GLPS-F3 relative to binding in absence of sugar competitor (CLEC-6) [%]	inhibition of binding of DVLR1/CLEC5A to DV (DVLR1/CLEC5A)	interaction with KCR.Fc in dot-binding assay (KCR.Fc)	interaction with TLT-2.Fc in dot-binding assay (TLT-2.Fc)
C[C@H](O)[C@@H](O)[C@@H](O)[C@H](O)C=O [Fuc, L-fucose]	56 ± 1.9	44	82 ± 6.5	significantly reduced		
mannan	28 ± 6.3	72	75 ± 0.8	to a lesser extent		
β-1,3-glucan [b-glucan]	96 ± 4.0		98 ± 7.3		only Dectin-1.Fc can bind	only Dectin-1.Fc can bind

— patent US8460669B2, “Compositions and methods for identifying response targets and treating flavivirus infection responses” (Academia Sinica, priority 2005, dated 2013)
